How the values were obtained:
[1] = target: recombinant human Mcl-1 (residues 171-327) / Bim interaction (Homo sapiens (Human), UniProt Q07820); assay: biochemical; type: binding; settings: 0.1 nM Mcl-1(171-327), 0.05 nM biotin-Bim (51-76); read-out: Mcl-1 HTRF IC50
[2] = tested on: human multiple myeloma cell line, OPM-2; assay: Cell viability assay (OPM-2 10 FBS), CellTiter-Glo; type: cell-based; settings: Homo sapiens, OPM-2, 16 h, read-out: OPM-2 10% FBS IC50 IP, OPM-2 cells, 10% FBS, 16 h incubation
How it was run: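 IC50 values come from 4-parameter logistic fits of luminescence signals reflecting cell viability. Treatment lasted 16 h at 37 °C in complete medium with 10% FBS, starting from 3000 cells/well.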

recombinant human Mcl-1 (residues 171-327) / Bim interaction, sequence (Q07820 171-327): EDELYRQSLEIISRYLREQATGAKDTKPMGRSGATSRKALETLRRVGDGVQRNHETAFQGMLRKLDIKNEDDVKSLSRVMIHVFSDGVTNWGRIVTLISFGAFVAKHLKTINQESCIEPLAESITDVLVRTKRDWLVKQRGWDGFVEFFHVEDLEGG

**Q.** What does the source list for `CO[C@@]1(CN2CCN(Cc3nc(C)c(C)o3)CC2)/C=C/C[C@H](C)[C@@H](C)S(=O)(=O)NC(=O)c2ccc3c(c2)N(C[C@@H]2CC[C@H]21)C[C@@]1(CCCc2cc(Cl)ccc21)CO3` [Example 322, (1S,3′R,6′R,7′S,8′E,11′S,12′R)-6-chloro-7′-((4-((4,5-dimethyl-1,3-oxazol-2-yl)methyl)-1-piperazinyl)methyl)-7′-methoxy-11′,12′-dimethyl-3,4-dihydro-2H,15′H-spiro[naphthalene-1,22′-[20]oxa[13]thia[1,14]diazatetracyclo [14.7.2.0~3,6~.0~19,24~]pentacosa[8,16,18,24]tetraen]-15′-one 13′,13′-dioxide]?
**A.** IC50 [1]: 0.145 nM; IC50 [2]: 87 nM

**Q.** `CO[C@]1(CN2CCN(C(C)C)C(=O)C2)/C=C/C[C@H](C)[C@@H](C)S(=O)(=O)NC(=O)c2ccc3c(c2)N(C[C@@H]2CC[C@H]21)C[C@@]1(CCCc2cc(Cl)ccc21)CO3` [Example 323, (1S,3′R,6′R,7′R,8′E,11′S,12′R)-6-chloro-7′-methoxy-11′,12′-dimethyl-7′-((4-(1-methylethyl)-3-oxo-1-piperazinyl)methyl)-3,4-dihydro-2H,15′H-spiro[naphthalene-1,22′-[20]oxa[13]thia[1,14]diazatetracyclo [14.7.2.0~3,6~.0~19,24~]pentacosa[8,16,18,24]tetraen]-15′-one 13′,13′-dioxide] was tested. Which IC50 [1] did it give?
**A.** 0.166 nM

**Q.** And the IC50 [2]?
**A.** 169 nM

**Q.** What does the source list for `COCCN1[C@H](C)CN(C[C@]2(OC)/C=C/C[C@H](C)[C@@H](C)S(=O)(=O)NC(=O)c3ccc4c(c3)N(C[C@@H]3CC[C@H]32)C[C@@]2(CCCc3cc(Cl)ccc32)CO4)C[C@@H]1C` [Example 324, (1S,3′R,6′R,7′S,8′E,11′S,12′R)-6-chloro-7′-methoxy-7′-(((3R,5S)-4-(2-methoxyethyl)-3,5-dimethyl-1-piperazinyl)methyl)-11′,12′-dimethyl-3,4-dihydro-2H,15′H-spiro[naphthalene-1,22′-[20]oxa[13]thia[1,14]diazatetracyclo [14.7.2.0~3,6~.0~19,24~]pentacosa[8,16,18,24]tetraen]-15′-one 13′,13′-dioxide]?
**A.** IC50 [1]: 0.136 nM; IC50 [2]: 57 nM

**Q.** With `CO[C@]1(CN2CCCN(C(C)C)CC2)/C=C/C[C@H](C)[C@@H](C)S(=O)(=O)NC(=O)c2ccc3c(c2)N(C[C@@H]2CC[C@H]21)C[C@@]1(CCCc2cc(Cl)ccc21)CO3` [Example 327, (1S,3′R,6′R,7′R,8′E,11′S,12′R)-6-chloro-7′-methoxy-11′,12′-dimethyl-7′-((4-(1-methylethyl)-1,4-diazepan-1-yl)methyl)-3,4-dihydro-2H,15′H-spiro[naphthalene-1,22′-[20]oxa[13]thia[1,14]diazatetracyclo [14.7.2.0~3,6~.0~19,24~]pentacosa[8,16,18,24]tetraen]-15′-one 13′,13′-dioxide] as the compound, how does the IC50 [1] read?
**A.** 0.214 nM

**Q.** And the IC50 [2]?
**A.** 174 nM

**Q.** With `CO[C@]1(CN2C[C@@H](C)N(C(C)C)[C@@H](C)C2)/C=C/C[C@H](C)[C@@H](C)S(=O)(=O)NC(=O)c2ccc3c(c2)N(C[C@@H]2CC[C@H]21)C[C@@]1(CCCc2cc(Cl)ccc21)CO3` [Example 328, (1S,3′R,6′R,7′R,8′E,11′S,12′R)-6-chloro-7′-(((3R,5S)-3,5-dimethyl-4-(1-methylethyl)-1-piperazinyl)methyl)-7′-methoxy-11′,12′-dimethyl-3,4-dihydro-2H,15′H-spiro[naphthalene-1,22′-[20]oxa[13]thia[1,14]diazatetracyclo [14.7.2.0~3,6~.0~19,24~]pentacosa[8,16,18,24]tetraen]-15′-one 13′,13′-dioxide] as the compound, how does the IC50 [1] read?
**A.** 0.087 nM

**Q.** And the IC50 [2]?
**A.** 48 nM
